Drawing on patent publication US12209071B2, “Triazine derivatives for treating diseases relating to neurotrophins” (AlzeCure Pharma AB, priority 2018, dated 2025), this text covers EC50 for 26 compounds.

The term EC50 denotes the midpoint of the concentration-response curve. A low value points to greater potency.

For one assay, the target named is T1, TrkB (Homo sapiens, UniProt Q16620).
T1 construct: expressed in transfected cells; host or cells: U2OS
The assay is described as follows: Enzyme Fragment Complementation cell-based assay, TrkB. The following applies: U2OS-cells over-expressing TrkB; ligand 10 ng/mL; 3 hours incubation. The text has this:
(§1) A high throughput cell-based screen has been used to identify positive modulators of TrkA, TrkB and TrkC. The screen involves the use of cell-based assay overexpressing TrkA, TrkB or TrkC. The purpose of the assay is to identify compounds that modulate neurotrophin signalling (Forsell et al 2012). The assay can be used in inhibitor mode using a high concentration of ligand, in modulator mode using an intermediate concentration and in agonist mode using a low concentration of ligand.
(§2) The assay uses Enzyme Fragment Complementation (EFC) technique, which is a proximity-based assay. Briefly, cells used in this assay over-express two fusion proteins, i.e. the receptor, which can be either one of TrkA, TrkB, TrkC, IGF1R or FGFR1, fused to a small peptide of beta-galactosidase and an adaptor protein, i.e. SHC1 (or any other Trk-adaptor protein) fused to the major part of beta-galactosidase. […] The proximity between the small activating peptide on the receptor and the major part of beta-galactosidase on the adaptor protein leads to an active beta-galactosidase enzyme. The activation of the receptor is quantified by measuring the amount of active beta-galactosidase by its conversion of a non-luminescent substrate into a luminescent product.
(§3) U2OS-cells, over-expressing TrkA or TrkB or TrkC, are plated in 96- or 384-well plates and incubated overnight. Alternatively, cryopreserved HEK293-cells expressing IGFR1 or cryopreserved U2OS-cells expressing FGFR1 were plated in 96- or 384-well plates. On the following day, test compound was pre-mixed with ligand (NGF, BDNF, NT-3, IGF-1 or basic fibroblast growth factor (bFGF(FGF-2))) and the ligand-compound mixture is then added to the cells to yield a final ligand concentration of 10 ng/mL. After 3 hours of incubation at room temperature, the incubation is stopped by the addition of a beta-galactosidase substrate mixture containing detergents. The substrate mixture is incubated for 60 minutes at ambient temperature. The luminescence is thereafter read by the use of a plate reader.

Another assay deals with T2, TrkA (Homo sapiens, UniProt P04629).
T2 construct: expressed in transfected cells; host or cells: U2OS
The assay is described as follows: Enzyme Fragment Complementation cell-based assay, TrkA. The following applies: U2OS-cells over-expressing TrkA; ligand 10 ng/mL; 3 hours incubation.
Source text: as §1, §2, §3

A further assay has as its target T3, TrkC (Homo sapiens, UniProt Q16288).
T3 construct: expressed in transfected cells; host or cells: U2OS
Nature of the assay: Enzyme Fragment Complementation cell-based assay, TrkC. The note with it: U2OS-cells over-expressing TrkC; ligand 10 ng/mL; 3 hours incubation.
Source text: as §1, §2, §3

T1 sequence (Q16620 32-822): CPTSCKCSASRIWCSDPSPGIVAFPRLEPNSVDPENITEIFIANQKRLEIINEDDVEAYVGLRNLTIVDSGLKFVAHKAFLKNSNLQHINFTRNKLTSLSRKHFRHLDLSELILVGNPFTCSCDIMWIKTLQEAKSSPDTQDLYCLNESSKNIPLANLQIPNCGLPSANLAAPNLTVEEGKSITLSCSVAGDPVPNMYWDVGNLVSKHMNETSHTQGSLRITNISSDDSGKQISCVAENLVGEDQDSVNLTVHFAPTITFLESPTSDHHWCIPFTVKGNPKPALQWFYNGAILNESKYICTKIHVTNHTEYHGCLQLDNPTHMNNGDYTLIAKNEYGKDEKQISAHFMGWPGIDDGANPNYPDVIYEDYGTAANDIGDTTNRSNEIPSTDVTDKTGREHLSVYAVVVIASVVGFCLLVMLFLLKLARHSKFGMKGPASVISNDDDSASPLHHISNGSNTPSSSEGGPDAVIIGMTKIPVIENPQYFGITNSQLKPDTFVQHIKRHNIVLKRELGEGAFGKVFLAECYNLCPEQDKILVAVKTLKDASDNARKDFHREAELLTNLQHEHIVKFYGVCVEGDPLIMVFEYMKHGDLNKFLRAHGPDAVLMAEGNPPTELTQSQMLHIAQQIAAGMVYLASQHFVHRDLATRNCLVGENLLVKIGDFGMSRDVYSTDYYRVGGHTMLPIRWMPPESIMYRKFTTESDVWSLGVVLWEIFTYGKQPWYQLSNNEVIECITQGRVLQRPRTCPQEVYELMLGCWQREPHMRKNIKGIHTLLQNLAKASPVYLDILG
T3 sequence (Q16288 32-839): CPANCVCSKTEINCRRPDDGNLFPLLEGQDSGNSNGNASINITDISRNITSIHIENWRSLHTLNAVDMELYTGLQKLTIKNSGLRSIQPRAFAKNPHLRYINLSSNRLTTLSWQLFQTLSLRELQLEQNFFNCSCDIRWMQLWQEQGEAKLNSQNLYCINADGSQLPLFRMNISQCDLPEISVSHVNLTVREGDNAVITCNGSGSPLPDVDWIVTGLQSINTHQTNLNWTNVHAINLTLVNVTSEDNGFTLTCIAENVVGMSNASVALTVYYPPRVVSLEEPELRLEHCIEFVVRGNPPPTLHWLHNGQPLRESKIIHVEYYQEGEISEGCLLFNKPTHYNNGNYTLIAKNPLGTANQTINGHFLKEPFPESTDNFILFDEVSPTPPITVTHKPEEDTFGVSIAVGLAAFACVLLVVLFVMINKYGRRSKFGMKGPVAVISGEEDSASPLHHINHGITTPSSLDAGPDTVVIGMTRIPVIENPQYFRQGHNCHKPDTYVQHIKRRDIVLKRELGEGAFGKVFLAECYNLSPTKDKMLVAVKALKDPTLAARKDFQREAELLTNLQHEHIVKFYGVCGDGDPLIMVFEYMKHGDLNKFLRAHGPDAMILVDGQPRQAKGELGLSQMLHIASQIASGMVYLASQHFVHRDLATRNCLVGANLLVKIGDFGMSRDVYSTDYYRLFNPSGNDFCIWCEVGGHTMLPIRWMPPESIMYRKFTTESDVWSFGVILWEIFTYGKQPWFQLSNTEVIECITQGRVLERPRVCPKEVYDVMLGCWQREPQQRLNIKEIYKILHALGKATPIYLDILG
T2 sequence (P04629 33-796): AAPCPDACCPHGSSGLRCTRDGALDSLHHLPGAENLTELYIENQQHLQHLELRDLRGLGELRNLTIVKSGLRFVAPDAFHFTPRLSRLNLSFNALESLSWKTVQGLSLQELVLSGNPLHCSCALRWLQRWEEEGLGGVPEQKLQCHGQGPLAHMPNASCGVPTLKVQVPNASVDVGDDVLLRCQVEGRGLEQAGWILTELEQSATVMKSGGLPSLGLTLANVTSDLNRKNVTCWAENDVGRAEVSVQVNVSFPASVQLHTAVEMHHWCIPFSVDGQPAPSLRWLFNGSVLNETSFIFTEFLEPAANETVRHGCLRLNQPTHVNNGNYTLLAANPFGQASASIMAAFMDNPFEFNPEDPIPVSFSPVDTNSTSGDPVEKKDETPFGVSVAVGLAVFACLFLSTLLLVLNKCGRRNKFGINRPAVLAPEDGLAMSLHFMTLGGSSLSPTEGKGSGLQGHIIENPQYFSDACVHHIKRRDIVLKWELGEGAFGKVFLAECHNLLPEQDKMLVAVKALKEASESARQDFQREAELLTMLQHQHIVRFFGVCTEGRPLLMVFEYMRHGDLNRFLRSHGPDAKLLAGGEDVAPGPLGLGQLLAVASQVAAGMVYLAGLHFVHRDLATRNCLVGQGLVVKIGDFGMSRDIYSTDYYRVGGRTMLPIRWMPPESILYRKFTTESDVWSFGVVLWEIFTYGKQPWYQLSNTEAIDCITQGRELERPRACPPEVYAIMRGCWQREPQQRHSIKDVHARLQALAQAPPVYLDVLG

Regarding `O=c1[nH]c(=O)n(-c2ccc(Oc3ccccc3)c(OC3CCOC3)c2)c(=O)n1-c1ccccc1` (stereo not drawn) [Example 17, 1-[3-(oxolan-3-yloxy)-4-phenoxyphenyl]-3-phenyl-1,3,5-triazinane-2,4,6-trione], the EC50 stood at 750 nM on TrkB, 780 nM on TrkA and 480 nM at TrkC.

Take `Cn1c(=O)[nH]c(=O)n(-c2ccc(Oc3ccccc3)c(Cl)c2)c1=O` [Example 65, 1-(3-chloro-4-phenoxyphenyl)-3-methyl-1,3,5-triazinane-2,4,6-trione]: the EC50 was 1600 nM at TrkB, 4500 nM at TrkA and 320 nM on TrkC.

For `Cc1cc(-n2c(=O)[nH]c(=O)n(-c3cnn(-c4ccccc4)c3)c2=O)ccc1Oc1ccccc1` [Example 68, 1-(3-methyl-4-phenoxyphenyl)-3-(1-phenyl-1H-pyrazol-4-yl)-1,3,5-triazinane-2,4,6-trione], the EC50 at TrkB was 360 nM; on TrkA, 230 nM; at TrkC, 1100 nM.

Consider `CC(C)Oc1cc(-n2c(=O)[nH]c(=O)n(-c3ccccc3)c2=O)ccc1Oc1ccccc1` [Example 27, 1-[4-phenoxy-3-(propan-2-yloxy)phenyl]-3-phenyl-1,3,5-triazinane-2,4,6-trione], for which the EC50 at TrkB is 370 nM; at TrkA, 360 nM; at TrkC it was 330 nM.

In the case of `Cc1cc(-n2c(=O)[nH]c(=O)n(-c3cccc4[nH]ccc34)c2=O)ccc1Oc1ccccc1` [Example 49, 1-(1H-indol-4-yl)-3-(3-methyl-4-phenoxyphenyl)-1,3,5-triazinane-2,4,6-trione], the EC50 at TrkB stood at 790 nM; at TrkA it was 190 nM; on TrkC, 2000 nM.

As for `COCCOc1cc(-n2c(=O)[nH]c(=O)n(-c3cccc(Cl)c3)c2=O)ccc1Oc1ccccc1` [Example 58, 1-(3-chlorophenyl)-3-[3-(2-methoxyethoxy)-4-phenoxyphenyl]-1,3,5-triazinane-2,4,6-trione], the EC50 was 230 nM on TrkB, 220 nM at TrkA and 180 nM on TrkC.

As to `Cc1cn(-c2ccccc2)c2ccc(-n3c(=O)[nH]c(=O)n(C)c3=O)cc12` [Example 37, 1-methyl-3-(3-methyl-1-phenyl-1H-indol-5-yl)-1,3,5-triazinane-2,4,6-trione], the concentration giving a half-maximal response (EC50) at TrkA was 390 nM; at TrkC, 40 nM.

`COCCOc1cc(-n2c(=O)[nH]c(=O)n(-c3cccc(C)c3)c2=O)ccc1Oc1ccccc1` [Example 57, 1-[3-(2-methoxyethoxy)-4-phenoxyphenyl]-3-(3-methylphenyl)-1,3,5-triazinane-2,4,6-trione]: the EC50 on TrkB is 120 nM; at TrkA, 180 nM; on TrkC it was 90 nM.

Consider `COCCOc1cc(-n2c(=O)[nH]c(=O)n(-c3ccc(C)cc3)c2=O)ccc1Oc1ccccc1` [Example 56, 1-[3-(2-methoxyethoxy)-4-phenoxyphenyl]-3-(4-methylphenyl)-1,3,5-triazinane-2,4,6-trione], for which the values for the EC50 at TrkB, at TrkA and at TrkC were 110 nM, 290 nM and 170 nM, respectively.

On to `Cn1c(=O)[nH]c(=O)n(-c2ccc(Oc3ccccc3)c(OC3CCOC3)c2)c1=O` (stereo not drawn) [Example 22, 1-methyl-3-[3-(oxolan-3-yloxy)-4-phenoxyphenyl]-1,3,5-triazinane-2,4,6-trione], for which the results for the EC50 on TrkB, at TrkA and on TrkC were 3600 nM, 1300 nM and 3000 nM, respectively.

As for `COCCOc1cc(-n2c(=O)[nH]c(=O)n(-c3ccccc3)c2=O)ccc1Oc1ccccc1` [Example 29, 1-[3-(2-methoxyethoxy)-4-phenoxyphenyl]-3-phenyl-1,3,5-triazinane-2,4,6-trione], the EC50 on TrkB was 500 nM; at TrkA, 560 nM; on TrkC, 340 nM.

Take `Cc1cn(Cc2ccccc2)c2ccc(-n3c(=O)[nH]c(=O)n(-c4ccccc4)c3=O)cc12` [Example 36, 1-(1-Benzyl-3-methyl-1H-indol-5-yl)-3-phenyl-1,3,5-triazinane-2,4,6-trione]: the EC50 on TrkB is 460 nM; at TrkA it was 950 nM; on TrkC it was 1500 nM.

On to `CCOc1cc(-n2c(=O)[nH]c(=O)n(-c3ccccc3)c2=O)ccc1Oc1ccccc1` [Example 16, 1-(3-ethoxy-4-phenoxyphenyl)-3-phenyl-1,3,5-triazinane-2,4,6-trione], for which the values for the EC50 at TrkB, at TrkA and at TrkC were 370 nM, 390 nM and 510 nM, respectively.

In the case of `Cc1ccc(-n2c(=O)[nH]c(=O)n(-c3ccc(Oc4ccccc4)c(C)c3)c2=O)cc1` [Example 41, 1-(3-methyl-4-phenoxyphenyl)-3-(4-methylphenyl)-1,3,5-triazinane-2,4,6-trione], the EC50 at TrkB stood at 210 nM; at TrkA, 250 nM; on TrkC, 140 nM.

Take `CC(C)Oc1cc(-n2c(=O)[nH]c(=O)n(C)c2=O)ccc1Oc1ccccc1` [Example 26, 1-methyl-3-[4-phenoxy-3-(propan-2-yloxy)phenyl]-1,3,5-triazinane-2,4,6-trione]: the EC50 stood at 1500 nM on TrkB, 1100 nM at TrkA and 2000 nM on TrkC.

For `Cc1ccc(-n2c(=O)[nH]c(=O)n(-c3ccc(Oc4ccccc4)c(C)c3)c2=O)s1` [Example 40, 1-(3-methyl-4-phenoxyphenyl)-3-(5-methylthiophen-2-yl)-1,3,5-triazinane-2,4,6-trione], the values for the EC50 at TrkB, on TrkA and at TrkC were 280 nM, 260 nM and 140 nM, respectively.

For `COCCOc1cc(-n2c(=O)[nH]c(=O)n(-c3ccc(Cl)cc3)c2=O)ccc1Oc1ccccc1` [Example 59, 1-(4-chlorophenyl)-3-[3-(2-methoxyethoxy)-4-phenoxyphenyl]-1,3,5-triazinane-2,4,6-trione], the EC50 at TrkB was determined as 460 nM; at TrkA, 480 nM; on TrkC, 330 nM.

On to `O=c1[nH]c(=O)n(-c2ccc(Oc3ccccc3)c(Br)c2)c(=O)n1-c1ccccc1` [Example 69, 1-(3-bromo-4-phenoxyphenyl)-3-phenyl-1,3,5-triazinane-2,4,6-trione], for which the EC50 at TrkB was 250 nM; at TrkA, 220 nM; at TrkC, 190 nM.

As for `COc1cccc(-n2c(=O)[nH]c(=O)n(-c3ccc(Oc4ccccc4)c(C)c3)c2=O)c1` [Example 50, 1-(3-methoxyphenyl)-3-(3-methyl-4-phenoxyphenyl)-1,3,5-triazinane-2,4,6-trione], the EC50 amounted to 190 nM on TrkB and 310 nM at TrkA.

Take `Cc1cc(-n2c(=O)[nH]c(=O)n(C)c2=O)ccc1Oc1ccccc1` [Example 55, 1-methyl-3-(3-methyl-4-phenoxyphenyl)-1,3,5-triazinane-2,4,6-trione]: the figures for the EC50 on TrkB and at TrkA were 1400 nM and 390 nM, respectively.

For the compound `Cc1cc(-n2c(=O)[nH]c(=O)n(-c3ccc(Oc4ccccc4)c(C)c3)c2=O)ccc1Oc1ccccc1` [Example 67, 1,3-bis(3-methyl-4-phenoxyphenyl)-1,3,5-triazinane-2,4,6-trione], the EC50 was 26000 nM at TrkB and 3200 nM on TrkA.

Take `Cc1cc(-n2c(=O)[nH]c(=O)n(-c3ccc4occc4c3)c2=O)ccc1Oc1ccccc1` [Example 46, 1-(1-benzofuran-5-yl)-3-(3-methyl-4-phenoxyphenyl)-1,3,5-triazinane-2,4,6-trione]: the results for the half-maximal effective concentration (EC50) at TrkB and on TrkA were 240 nM and 480 nM, respectively.

On to `Cc1cc(-n2c(=O)[nH]c(=O)n(-c3ccccn3)c2=O)ccc1Oc1ccccc1` [Example 18, 1-(3-methyl-4-phenoxyphenyl)-3-(pyridin-2-yl)-1,3,5-triazinane-2,4,6-trione], for which the values for the EC50 on TrkB and on TrkA were 140 nM and 870 nM, respectively.

Turning to `Cc1cc(-n2c(=O)[nH]c(=O)n(-c3ccccc3)c2=O)ccc1Cc1ccccc1` [Example 42, 1-(4-benzyl-3-methylphenyl)-3-phenyl-1,3,5-triazinane-2,4,6-trione], the results for the EC50 on TrkB and on TrkA were 280 nM and 190 nM, respectively.

Regarding `O=c1[nH]c(=O)n(-c2ccc(Oc3ccccc3)c(CO)c2)c(=O)n1-c1ccccc1` [Example 75, 1-[3-(hydroxymethyl)-4-phenoxyphenyl]-3-phenyl-1,3,5-triazinane-2,4,6-trione], the figures for the EC50 at TrkB and on TrkA were 1800 nM and 1170 nM, respectively.

Consider `Cc1cc(-n2c(=O)[nH]c(=O)n(-c3ccccc3)c2=O)c(C)cc1Oc1ccccc1` [Example 54, 1-(2,5-dimethyl-4-phenoxyphenyl)-3-phenyl-1,3,5-triazinane-2,4,6-trione], for which the EC50 at TrkB amounted to 310 nM; on TrkA, 440 nM.
